From US20100267561A1, “HERBICIDAL PYRIDAZINONE DERIVATIVES” (priority 2007, published 2010)

Columns and labels:
Assay in all cases: Test B pre-/postemergence plant response
Assay type in all cases: in vivo
[1] = tested on: Italian ryegrass (Lolium multiflorum); details: for Ryegrass, Italian plant response rating: 8 g ai/ha
Procedure, shortened: (§1)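 Seeds were sown and sprayed preemergence, while plants at 2 to 18 cm (1- to 4-leaf stage) got postemergence sprays. Compounds were formulated in a non-phytotoxic solvent mixture with surfactant. After 13 to 15 days in a greenhouse, injury was rated visually against untreated controls, 0 (no effect) to 100 (complete control).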

[2] = tested on: Russian thistle (Salsola iberica); details: Preemergence
Procedure, shortened: as §1

[3] = tested on: blackgrass (Alopecurus myosuroides); details: for Blackgrass plant response rating: 8 g ai/ha
Procedure, shortened: as §1

[4] = tested on: catchweed bedstraw (Galium aparine); details: Preemergence
Procedure, shortened: as §1

[5] = tested on: common ragweed (Ambrosia elation); details: for Ragweed plant response rating: 8 g ai/ha
Procedure, shortened: as §1

[6] = tested on: eastern black (E.B.) nightshade (Solanum ptycanthum); details: Preemergence
Procedure, shortened: as §1

[7] = tested on: giant foxtail (Setaria faberii); details: for Foxtail, Giant plant response rating: 8 g ai/ha
Procedure, shortened: as §1

[8] = tested on: goosegrass (Eleusine indica); details: for Goosegrass plant response rating: 8 g ai/ha
Procedure, shortened: as §1

[9] = tested on: johnsongrass (Sorghum halepense); details: for Johnsongrass plant response rating: 8 g ai/ha
Procedure, shortened: as §1

[10] = tested on: kochia (Kochia scoparia); details: for Kochia plant response rating: 8 g ai/ha
Procedure, shortened: as §1

[11] = tested on: lambsquarters (Chenopodium album); details: for Lambsquarters plant response rating: 8 g ai/ha
Procedure, shortened: as §1

[12] = tested on: pigweed (Amaranthus retroflexus); details: for Pigweed plant response rating: 8 g ai/ha
Procedure, shortened: as §1

[13] = tested on: soybean (Glycine max); details: for Soybean plant response rating: 8 g ai/ha
Procedure, shortened: as §1

[14] = tested on: woolly cupgrass (Eriochloa villosa); details: for Cupgrass, Woolly plant response rating: 8 g ai/ha
Procedure, shortened: as §1

[15] = Postemergence, 16 g ai/ha, scale 0 to 100
[16] = Postemergence, 31 g ai/ha, scale 0 to 100, 0 no effect, 100 complete control
[17] = Postemergence, 62 g ai/ha, scale 0 to 100, 0 no effect, 100 complete control
[18] = Preemergence, 16 g ai/ha, scale 0 to 100 (0 no effect, 100 complete control)
[19] = Preemergence, 31 g ai/ha, scale 0 to 100 (0 no effect, 100 complete control)
[20] = Preemergence, 62 g ai/ha, scale 0 to 100
[21] = 16 g ai/ha, scale 0 to 100 (0 no effect, 100 complete control)
[22] = 31 g ai/ha, scale 0 to 100 (0 no effect, 100 complete control)
[23] = Preemergence, 31 g ai/ha, 0 to 100 scale, 0 no effect, 100 complete control

CCc1cc(-c2ccc(Cl)cc2)nn1-c1c(OC(=O)C(C)(C)C)cnn(C)c1=O [Compound 40]
Ryegrass, Italian plant response rating ([1]; postemergence, 0-100 scale): 80
Plant response rating, Ryegrass, Italian [1, 15]: 100
Plant response rating, Ryegrass, Italian [1, 16]: 100
Plant response rating, Ryegrass, Italian [1, 17]: 100
Plant response rating, Ryegrass, Italian [1, 18]: 95
Plant response rating, Ryegrass, Italian [1, 19]: 95
Plant response rating, Ryegrass, Italian [1, 20]: 100
Ryegrass, Italian plant response rating ([1]; Preemergence, scale 0 to 100): 80
Plant response rating, Russian Thistle [2, 21]: 0
Plant response rating, Russian Thistle [2, 22]: 0
Plant response rating, Russian Thistle ([2]; 62 g ai/ha, scale 0 to 100): 0
Russian Thistle plant response rating ([2]; 8 g ai/ha, scale 0 to 100): 0
Blackgrass plant response rating ([3]; postemergence, 0-100 scale): 85
Plant response rating, Blackgrass [3, 15]: 90
Plant response rating, Blackgrass [3, 16]: 90
Plant response rating, Blackgrass [3, 17]: 90
Plant response rating, Blackgrass [3, 18]: 95
Plant response rating, Blackgrass [3, 23]: 95
Plant response rating, Blackgrass [3, 20]: 95
Blackgrass plant response rating ([3]; Preemergence, scale 0 to 100): 95
Plant response rating, Galium [4, 21]: 0
Plant response rating, Galium ([4]; 31 g ai/ha, 0 to 100 scale, 0 no effect, 100 complete control): 0
Plant response rating, Galium ([4]; 62 g ai/ha, scale 0 to 100): 0
Galium plant response rating ([4]; 8 g ai/ha, scale 0 to 100): 0
Ragweed plant response rating ([5]; postemergence, 0-100 scale): 0
Plant response rating, Ragweed [5, 15]: 0
Plant response rating, Ragweed [5, 16]: 0
Plant response rating, Ragweed [5, 17]: 0
Plant response rating, Ragweed [5, 18]: 0
Plant response rating, Ragweed [5, 19]: 0
Plant response rating, Ragweed [5, 20]: 0
Ragweed plant response rating ([5]; Preemergence, scale 0 to 100): 0
Plant response rating, Nightshade, E. B. [6, 21]: 0
Plant response rating, Nightshade, E. B. [6, 22]: 0
Plant response rating, Nightshade, E. B. ([6]; 62 g ai/ha, scale 0 to 100): 0
Nightshade, E. B. plant response rating ([6]; 8 g ai/ha, scale 0 to 100): 0
Foxtail, Giant plant response rating ([7]; postemergence, 0-100 scale): 100
Plant response rating, Foxtail, Giant [7, 15]: 100
Plant response rating, Foxtail, Giant [7, 16]: 100
Plant response rating, Foxtail, Giant [7, 17]: 100
Plant response rating, Foxtail, Giant [7, 18]: 100
Plant response rating, Foxtail, Giant [7, 23]: 100
Plant response rating, Foxtail, Giant [7, 20]: 100
Foxtail, Giant plant response rating ([7]; Preemergence, scale 0 to 100): 100
Goosegrass plant response rating ([8]; postemergence, 0-100 scale): 60
Plant response rating, Goosegrass [8, 15]: 75
Plant response rating, Goosegrass [8, 16]: 80
Plant response rating, Goosegrass [8, 17]: 100
Plant response rating, Goosegrass [8, 18]: 100
Plant response rating, Goosegrass [8, 23]: 100
Plant response rating, Goosegrass [8, 20]: 100
Goosegrass plant response rating ([8]; Preemergence, scale 0 to 100): 98
Johnsongrass plant response rating ([9]; postemergence, 0-100 scale): 0
Plant response rating, Johnsongrass [9, 15]: 0
Plant response rating, Johnsongrass [9, 16]: 98
Plant response rating, Johnsongrass [9, 17]: 100
Plant response rating, Johnsongrass [9, 18]: 95
Plant response rating, Johnsongrass [9, 23]: 98
Plant response rating, Johnsongrass [9, 20]: 98
Johnsongrass plant response rating ([9]; Preemergence, scale 0 to 100): 90
Kochia plant response rating ([10]; postemergence, 0-100 scale): 0
Plant response rating, Kochia [10, 15]: 0
Plant response rating, Kochia [10, 16]: 0
Plant response rating, Kochia [10, 17]: 0
Plant response rating, Kochia [10, 18]: 0
Plant response rating, Kochia [10, 23]: 0
Plant response rating, Kochia [10, 20]: 0
Kochia plant response rating ([10]; Preemergence, scale 0 to 100): 0
Lambsquarters plant response rating ([11]; postemergence, 0-100 scale): 0
Plant response rating, Lambsquarters [11, 15]: 0
Plant response rating, Lambsquarters [11, 16]: 0
Plant response rating, Lambsquarters [11, 17]: 0
Plant response rating, Lambsquarters [11, 18]: 0
Plant response rating, Lambsquarters [11, 23]: 0
Plant response rating, Lambsquarters [11, 20]: 0
Lambsquarters plant response rating ([11]; Preemergence, scale 0 to 100): 0
Pigweed plant response rating ([12]; postemergence, 0-100 scale): 0
Plant response rating, Pigweed [12, 15]: 0
Plant response rating, Pigweed [12, 16]: 0
Plant response rating, Pigweed [12, 17]: 0
Plant response rating, Pigweed [12, 18]: 0
Plant response rating, Pigweed [12, 19]: 0
Plant response rating, Pigweed [12, 20]: 0
Pigweed plant response rating ([12]; Preemergence, scale 0 to 100): 0
Soybean plant response rating ([13]; postemergence, 0-100 scale): 0
Plant response rating, Soybean [13, 15]: 0
Plant response rating, Soybean [13, 17]: 0
Plant response rating, Soybean [13, 18]: 0
Plant response rating, Soybean [13, 19]: 0
Plant response rating, Soybean [13, 20]: 0
Soybean plant response rating ([13]; Preemergence, scale 0 to 100): 0
Cupgrass, Woolly plant response rating ([14]; postemergence, 0-100 scale): 98
Plant response rating, Cupgrass, Woolly [14, 15]: 98
Plant response rating, Cupgrass, Woolly [14, 16]: 100
Plant response rating, Cupgrass, Woolly [14, 17]: 100
Plant response rating, Cupgrass, Woolly [14, 18]: 100
Plant response rating, Cupgrass, Woolly [14, 23]: 100
Plant response rating, Cupgrass, Woolly [14, 20]: 100
Cupgrass, Woolly plant response rating ([14]; Preemergence, scale 0 to 100): 15
